Reference: patent publication US7189851B2, “Condensed heterocyclic compounds as calcitonin agonists” (SmithKline Beecham Corporation, priority 2002, dated 2007)

How the values were obtained:
[1] = target: T1, human calcitonin-2 receptor (hCT2R) (Homo sapiens, UniProt P30988); assay: HCT2R CRE-luc reporter assay; assay type: cell-based; conditions: agonist activity; CHO-6CRE-luciferase cells co-transfected with hCT2R
T1 construct: expressed in transfected cells; host or cells: Chinese hamster ovary (CHO) cells co-transfected with a 6CRE-luciferase reporter; receptor cDNA cloned from the MCF7 cell line
T1 sequence (P30988 25-474): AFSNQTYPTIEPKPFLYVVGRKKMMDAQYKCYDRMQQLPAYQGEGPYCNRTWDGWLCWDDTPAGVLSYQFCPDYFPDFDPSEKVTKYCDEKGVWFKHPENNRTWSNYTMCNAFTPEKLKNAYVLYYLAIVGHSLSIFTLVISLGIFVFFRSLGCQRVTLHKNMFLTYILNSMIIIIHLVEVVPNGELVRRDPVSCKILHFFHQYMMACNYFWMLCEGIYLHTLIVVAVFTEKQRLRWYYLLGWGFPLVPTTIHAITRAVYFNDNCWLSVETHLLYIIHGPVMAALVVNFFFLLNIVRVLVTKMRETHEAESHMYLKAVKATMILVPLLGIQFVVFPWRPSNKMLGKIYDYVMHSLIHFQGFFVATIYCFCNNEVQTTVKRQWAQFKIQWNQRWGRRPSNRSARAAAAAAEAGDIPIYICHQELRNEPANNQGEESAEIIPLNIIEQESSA

[2] = test system: neonatal rat calvaria; assay: Rat calvaria assay in vitro (bone resorption); assay type: cell-based; parameters: key: Active: Rat calvaria: Concentration-dependent inhibition of bone resorption with efficacy equivalent to calcitonin 1 ng/ml; conditions: PTH 10 ng/ml stimulated bone resorption; calcium and deoxypyridinoline in supernatant
Method: Bone resorption of neonatal rat cavarial chips was measured using methods adapted from published protocols [Ulf H, Lemer Modifications of the Mouse Calvarial Technique Improve the Responsiveness to Stimulators of Bone Resorption. Journal of Bone and Mineral Research Vol 2, No. 5, 1987]. Resorption was measured by quantification of calcium in the supernatant by a calorimetric assay and of deoxypyridinoline in the supernatant by ELISA. Deoxypyridinoline is released as a by product of collagen degradation by the osteoclast
Calvaria were surgically removed from 2–3 day old Wistar rats and placed in a sterile tube containing BGJb media (Fitton-Jackson Modification)—GIBCO BRL with penicillin (10 U/ml)/streptomycin (10 μg/ml). Calvaria were washed twice with fresh media, trimmed of excess tissue, and placed in fresh media. Calvaria were uniformly sectioned and placed in the wells of a tissue culture plate in 1 ml of BGJb/P/S with 1 mg/ml BSA. Calvaria were incubated for 24 hours at 37° C., 5% CO2 before treatments. Media was aspirated and replaced with 1 ml of fresh media containing PTH 10 ng/ml . Unstimulated wells contained media alone. Test compounds or calcitonin (1 ng/ml) were added. Compounds or calcitonin were added again on days 2 and 3, with no medium or PTH additions. Upon completion of the assay, the media was collected and stored at −20° C. until analysis was performed. Calvaria were air-dried for several days, and dry weight was quantified.
Deoxypyridinoline ELISA: Supernatants were evaluated for deoxypyridinoline crosslinks according to kit manufacturer instructions. SoftMax software was used to evaluate ELISA data from a 96-well format to generate a standard curve. Sample values were extrapolated from this standard curve. Extrapolated sample values were imported into a Microsoft Excel to normalize sample values to dried calvarial weight. Data was expressed as nanomolar DPD/mg calvaria.
Calcium analysis: Calcium determinations were made using Arsenazo III reagent from Sigma Diagnostics No. 588. Procedure followed as described by manufacturer in kit instructions. Data was imported from plate reader into Microsoft® Excel® and calcium concentrations were calculated as follows: [Asample/Astandard]×Concentration of standard=mg/dL Calcium
Sample values were normalized to dried calvarial weight and expressed as mg/dL calcium per mg calvaria.

[3] = test system: Thyroid-parathyroidectomized (TPTX) rats; assay: Rat TPTX assay in vivo (PTH-induced elevation of serum calcium); parameters: key to TPTX rat in vivo: Active: TPTX (Thyroid- parathyroidectomized) rat: Significant inhibition of bone resorption reflected in serum calcium levels relative to PTH + Vehicle controls; conditions: serum calcium, PTH-infused TPTX rats, vs PTH + Vehicle
Description: Thyroid-parathyroidectomized (TPTX) rats were used to determine the effects of compounds on PTH-induced elevation of serum calcium in vivo. The thyroid and parathyroid glands of male CD rats were removed under anesthesia and subcutaneous pumps containing human parathyroid hormone (hPTH 1–34) were implanted two to five days after TPTX. […] PTH was delivered at a rate of 30 micrograms/kg/hour. PTH causes significant elevations of serum calcium in TPTX rats given no other treatments. Rats were treated with vehicle, test compounds at various doses or calcitonin 16 units/kg SC. […] Serurn calcium was measured at baseline and every two hours up to six hours. Averaged group responses at each time point were compared using Analysis of Variance (ANOVA).

[4] = test system: Human osteoclasts; assay: Human osteoclast assay in vitro (bone resorption); assay type: cell-based; parameters: key: Active: Human osteoclast: Significant inhibition of bone resorption in the absence of toxicity, relative to vehicle-treated controls; conditions: inhibition of bone resorption on cortical bone slices, 3 to 7 days
Method: Human osteoclasts were differentiated from peripheral blood cells using methods adapted from published protocols [Journal of Experimental Medicine 188(5):997–1001, 1998. TRANCE is necessary and sufficient for osteoblast-mediated activation of bone resorption in osteoclasts. K Fuller, B Wong, S Fox, Y Choi, and T J Chambers]. Human mononuclear cells were incubated on bone slices in M_CSF (30 ng/ml) and RANKL (TRANCE, 30 ng/ml) for 10 days. Differentiated osteoclasts were identified using an osteoclast-specific monoclonal antibody. Osteoclasts with test compounds or vehicle were incubated on cortical bone slices for an additional 3 to 7 days to measure bone resorption. In addition to bone resorption, toxicity and osteoclastogenesis were observed after compound treatments. A positive response was defined as significant inhibition of bone resorption without toxicity.

Row | EC50 [1] [nM] | melting point [°C] | SMILES | Rat calvaria in vitro [2] | TPTX rat in vivo [3] | Human osteoclast in vitro [4]
1 | ≤ 10 |  | CCOC(=O)c1c(CCc2ccc(C(F)(F)F)cc2)nc2c(c1-c1ccc(C(=O)NCc3ccco3)cc1)C(=O)N1CCC[C@@H]21 [Example 11, Ethyl(9aS)-4-(4-{[(2-furylmethyl)amino]carbonyl}phenyl)-5-oxo-2-{2-[4-(trifluoromethyl)phenyl]ethyl}-7,8,9,9a-tetrahydro-5H-pyrido[2,3-a]pyrrolizine-3-carboxylate] | Active |  | Active
2 | 10 to 100 |  | CCOC(=O)c1c(CCc2ccc(C(F)(F)F)cc2)nc2c(c1-c1ccc(C(=O)NCc3cccnc3)o1)C(=O)N1CCC[C@@H]21 [Example 12, Ethyl(9aS)-5-oxo-4-(5-{[(3-pyridinylmethyl)amino]carbonyl}-2-furyl)-2-{2-[4-(trifluoromethyl)phenyl]ethyl}-7,8,9,9a-tetrahydro-5H-pyrido[2,3-a]pyrrolyzine-3-carboxylate] | Active | Active | Active
3 | ≤ 10 |  | CCOC(=O)c1c(CCc2ccc(F)cc2)nc2c(c1-c1cc(C(=O)NCc3ccc(F)c(F)c3)cs1)C(=O)N1CCC[C@@H]21 [Example 16, Ethyl(9aS)-4-(4-{[(3,4-difluorobenzyl)amino]carbonyl}-2-thienyl)-2-[2-(4-fluorophenyl)ethyl]-5-oxo-7,8,9,9a-tetrahydro-5H-pyrido[2,3-a]pyrrolizine-3-carboxylate] | Active | Active | 

More lines, now with the values behind:

Row | SMILES | EC50 [1] [nM] | melting point [°C] | Rat calvaria in vitro [2] | TPTX rat in vivo [3] | Human osteoclast in vitro [4]
4 | CCOC(=O)c1c(CCc2ccc(C(F)(F)F)cc2)nc2c(c1-c1ccc(S(=O)(=O)NCc3ccco3)cc1)C(=O)N1CCC[C@@H]21 [Example 2, Ethyl (9aS)-4-(4-{[(2-furylmethyl)amino]sulfonyl}phenyl)-5-oxo-2-{2-[4-(trifluoromethyl)phenyl]ethyl}-7,8,9,9a-tetrahydro-5H-pyrido[2,3-a]pyrrolizine-3-carboxylate] | 100 to 1000 | 181 to 182 |  |  | 
5 | CCOC(=O)c1c(CCc2ccc(C(F)(F)F)cc2)nc2c(c1-c1ccc(C(=O)N[C@H](C)c3ccncc3)cc1)C(=O)N1CCC[C@@H]21 [Example 4, Ethyl (9aS)-5-oxo-4-[4-({[(1R)-1-(4-pyridinyl)ethyl]amino}carbonyl)phenyl]-2-{2-[4-(trifluoromethyl)phenyl]ethyl}-7,8,9,9a-tetrahydro-5H-pyrido[2,3-a]pyrrolizine-3-carboxylate] | 10 to 100 |  | Active | Active | 
6 | CCOC(=O)c1c(CCc2ccc(C(F)(F)F)cc2)nc2c(c1-c1ccc(C(=O)N[C@@H](C)c3ccncc3)cc1)C(=O)N1CCC[C@@H]21 [Example 5, Ethyl (9aS)-5-oxo-4-[4-({[(1S)-1-(4-pyridinyl)ethyl]amino}carbonyl)phenyl]-2-{2-[4-(trifluoromethyl)phenyl]ethyl}-7,8,9,9a-tetrahydro-5H-pyrido[2,3-α]pyrrolizine-3-carboxylate] | 100 to 1000 | 158 to 160 | Active | Active | 
7 | CCOC(=O)c1c(CCc2ccc(C(F)(F)F)cc2)nc2c(c1-c1ccc(NC(=O)Nc3ccccc3)cc1)C(=O)N1CCC[C@@H]21 [Example 7, Ethyl (9aS)-4-{4-[(anilinocarbonyl)amino]phenyl}-5-oxo-2-{2-[4-(trifluoromethyl)phenyl]ethyl}-7,8,9,9a-tetrahydro-5H-pyrido[2,3-α]pyrrolizine-3-carboxylate] | 100 to 1000 | 137 to 139 |  |  | 
8 | CCOC(=O)c1c(CCc2ccc(OC)cc2)nc2c(c1-c1ccc(C(=O)NCc3ccccn3)cc1)C(=O)N1CCC[C@H]1C2 [Example 57, Ethyl (9aS)-2-[2-(4-methoxyphenyl)ethyl]-5-oxo-4-(4-{[(2-pyridinylmethyl)amino]carbonyl}phenyl)-5,7,8,9,9a,10-hexahydropyrrolo[1,2-g][1,6]naphthyridine-3-carboxylate] | ≥ 1000 | > 200 |  |  | 
